Laboratory results published in the Kinase Knowledgebase extract (Sharma et al. 2016).
≈ marks a conversion by molar mass, not a printed value.

What was measured:
[1] = molecular target: EGFR (human) (UniProt P00533); conditions: a431
[2] = molecular target: EGFR (human) (UniProt P00533); conditions: sw 620
[3] = molecular target: EGFR (human) (UniProt P00533); conditions: mda-mb-435
[4] = molecular target: EGFR (human) (UniProt P00533); conditions: sk-br-3
[5] = molecular target: EGFR (human) (UniProt P00533); conditions: for inhibition: ht-29, concentration not given here; for IC50: ht-29

Chain of EGFR (human) (P00533 whole entry, looked up): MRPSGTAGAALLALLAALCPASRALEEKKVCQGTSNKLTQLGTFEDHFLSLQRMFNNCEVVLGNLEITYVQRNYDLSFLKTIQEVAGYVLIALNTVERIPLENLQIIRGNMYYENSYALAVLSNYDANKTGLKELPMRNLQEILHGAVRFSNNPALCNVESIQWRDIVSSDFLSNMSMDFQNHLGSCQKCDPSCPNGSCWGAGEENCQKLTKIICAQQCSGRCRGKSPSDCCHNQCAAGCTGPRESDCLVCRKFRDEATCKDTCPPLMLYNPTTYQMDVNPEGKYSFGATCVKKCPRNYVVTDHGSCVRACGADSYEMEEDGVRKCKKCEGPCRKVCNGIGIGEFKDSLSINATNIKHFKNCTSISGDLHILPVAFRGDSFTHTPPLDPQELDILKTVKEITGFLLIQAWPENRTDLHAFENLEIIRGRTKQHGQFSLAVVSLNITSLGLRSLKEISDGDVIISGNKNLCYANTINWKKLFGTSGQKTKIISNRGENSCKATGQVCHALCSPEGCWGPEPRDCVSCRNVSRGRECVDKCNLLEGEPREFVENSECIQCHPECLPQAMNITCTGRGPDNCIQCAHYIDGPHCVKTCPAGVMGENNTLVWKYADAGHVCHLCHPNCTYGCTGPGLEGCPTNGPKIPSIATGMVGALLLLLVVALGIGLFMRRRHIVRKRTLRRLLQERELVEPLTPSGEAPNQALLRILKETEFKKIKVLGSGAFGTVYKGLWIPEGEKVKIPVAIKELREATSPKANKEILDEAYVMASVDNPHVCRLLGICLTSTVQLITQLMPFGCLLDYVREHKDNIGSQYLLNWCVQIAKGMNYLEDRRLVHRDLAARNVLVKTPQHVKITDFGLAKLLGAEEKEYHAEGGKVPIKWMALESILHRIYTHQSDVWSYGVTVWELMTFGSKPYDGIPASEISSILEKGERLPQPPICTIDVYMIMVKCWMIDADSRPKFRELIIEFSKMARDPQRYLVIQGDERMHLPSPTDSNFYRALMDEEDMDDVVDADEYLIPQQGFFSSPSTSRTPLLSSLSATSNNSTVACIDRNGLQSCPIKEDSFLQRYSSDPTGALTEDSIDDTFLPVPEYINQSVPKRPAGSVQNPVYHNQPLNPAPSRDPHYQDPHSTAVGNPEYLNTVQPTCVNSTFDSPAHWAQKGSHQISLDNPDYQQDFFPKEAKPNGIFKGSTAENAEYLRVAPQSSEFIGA

| SMILES | IC50 [1] | IC50 [2] | IC50 [3] | IC50 [4] | inhibition [5] | IC50 [5] |
| --- | --- | --- | --- | --- | --- | --- |
| N#Cc1cnc2c(sc3ccc([N+](=O)[O-])cc32)c1Nc1ccc(Cl)cc1Cl | 0.41 µg/mL (≈ 0.987 µM) | 0.67 µg/mL (≈ 1.61 µM) | 0.46 µg/mL (≈ 1.11 µM) | 0.59 µg/mL (≈ 1.42 µM) | – | – |
| COc1cc2cc3ncc(C#N)c(Nc4ccc(F)c(Cl)c4)c3cc2cc1OCCN1CCOCC1 | 0.76 µg/mL (≈ 1.5 µM) | 0.36 µg/mL (≈ 0.71 µM) | – | 0.04 µg/mL (≈ 0.0789 µM) | – | – |
| N#Cc1cnc2cc3nc[nH]c3cc2c1Nc1ccc(Cl)cc1Br | – | – | – | – | 25% | – |
| N#Cc1cnc2c(oc3ccccc32)c1Nc1cccc(Br)c1 | > 5 µg/mL | > 5 µg/mL | > 5 µg/mL | > 5 µg/mL | – | – |
| COc1cc(Nc2c(C#N)cnc3cc4nc[nH]c4cc23)cc(OC)c1OC | – | – | – | – | 0% | – |
| CCOc1cc2cc3c(Nc4cc(OC)c(Cl)cc4C)c(C#N)cnc3cc2cc1OCCN1CCOCC1 | – | – | – | – | – | > 10 µM |
| COc1cc(Nc2c(C#N)cnc3cc4cc(OCCN5CCN(C)CC5)c(OC)cc4cc23)c(C)cc1Cl | – | – | – | – | – | 8.6 µM |
| N#Cc1cnc2cc3nc[nH]c3cc2c1Nc1cccc(Br)c1 | 0.58 µg/mL (≈ 1.59 µM) | 3.72 µg/mL (≈ 10.2 µM) | 3.48 µg/mL (≈ 9.56 µM) | 0.6 µg/mL (≈ 1.65 µM) | – | – |
| COc1cc2cc3c(Nc4ccc(OCc5ccccc5)c(Cl)c4)c(C#N)cnc3cc2cc1OCCN1CCOCC1 | 4.7 µg/mL (≈ 7.9 µM) | 11.6 µg/mL (≈ 19.5 µM) | 33.5 µg/mL (≈ 56.3 µM) | 3.5 µg/mL (≈ 5.88 µM) | – | – |
| C=CC(=O)Nc1cccc2c1sc1c(Nc3cccc(Br)c3)c(C#N)cnc12 | 1.11 µg/mL (≈ 2.47 µM) | > 5 µg/mL | 3.9 µg/mL (≈ 8.68 µM) | 1.09 µg/mL (≈ 2.43 µM) | – | – |
| N#Cc1cnc2c(sc3ccc(N)cc32)c1Nc1cccc(Br)c1 | > 5 µg/mL | > 5 µg/mL | > 5 µg/mL | > 5 µg/mL | – | – |
| C=CC(=O)Nc1ccc2sc3c(Nc4cccc(Br)c4)c(C#N)cnc3c2c1 | 0.838 µg/mL (≈ 1.86 µM) | 1 µg/mL (≈ 2.23 µM) | 1.69 µg/mL (≈ 3.76 µM) | 0.224 µg/mL (≈ 0.499 µM) | – | – |
| N#Cc1cnc2cc3cc(O)c(O)cc3cc2c1Nc1ccc(Cl)cc1Cl | 0.58 µg/mL (≈ 1.46 µM) | 0.38 µg/mL (≈ 0.959 µM) | 0.85 µg/mL (≈ 2.15 µM) | > 5 µg/mL | – | – |
| COc1cc(Nc2c(C#N)cnc3cc4cc(OCCN5CCOCC5)c(OC)cc4cc23)c(C)cc1Cl | – | – | – | – | – | > 10 µM |
| N#Cc1cnc2c(sc3ccccc32)c1Nc1cccc(Br)c1 | > 5 µg/mL | > 5 µg/mL | > 5 µg/mL | > 5 µg/mL | – | – |
| COc1ccc(Cl)c(Nc2c(C#N)cnc3cc4nc[nH]c4cc23)c1 | – | – | – | – | 10% | – |
| N#Cc1cnc2cc3ccccc3cc2c1Nc1ccc(F)c(Cl)c1 | 0.332 µg/mL (≈ 0.955 µM) | 1.08 µg/mL (≈ 3.11 µM) | 1.65 µg/mL (≈ 4.74 µM) | 1.01 µg/mL (≈ 2.9 µM) | – | – |
| COc1cc(Nc2c(C#N)cnc3cc4cc(OCCN5CCOCC5)c(OC)cc4cc23)c(Cl)cc1C | – | – | – | – | – | 9.95 µM |
| COc1cc(Nc2c(C#N)cnc3cc4nc[nH]c4cc23)c(Br)cc1Cl | – | – | – | – | 35% | – |
